Measured values reported in patent US20220364069A1, “METHOD FOR THE PRODUCTION OF AN ENZYMATIC COMPOSITION COMPRISING A RECOMBINANT ENDOPEPTIDASE” (NEMYSIS LIMITED, priority 2019, published 2022).
Values after ≈ are worked out from the molar mass of the structure shown. Where two headings read alike, the source gives them in different places.

Key:
[1] = system: Staphylococcus aureus ATCC6538; assay: Broth microdilution antimicrobial assay, S. aureus; type: cell-based; conditions: S. aureus ATCC6538, 20 h, 35° C.; for MIC: Staphylococcus aureus, read-out: MIC (Minimal Inhibitory Concentration)
Text: (§1) As known, S. lividans TK24 could potentially produce actinorhodin (ACT), undecylprodigiosin (UDP), and calcium-dependent antibiotic (CDA), especially when grown under fermentation conditions. Broth microdilution assay, standardized by the Clinical and Laboratory Standards Institute (CLSI) was then used to evaluate antibiotic presence in samples deriving from enzyme preparations obtained by the method of the invention. Antimicrobial activity has been tested against test microorganisms (test-mo), known to not show any antibiotic resistance: Staphylococcus aureus ATCC6538 (representative of Gram+); Escherichia coli L47 (Lepetit collection; representative of Gram-); Candida albicans L145 (Lepetit collection; representative of Yeast).
(§2) A two-fold serial dilution of the samples to be tested was performed in sterile 96-well microplates, then inoculated with the test-mo in their respective medium (100 μl/well final volume); each determination was carried out in triplicate. The inoculated microplates were then incubated for 18, 20 and 24 h for E. coli, S. aureus and C. albicans, respectively, at 35° C. Antimicrobial activity of samples of unknown “antimicrobial” concentration was measured as endpoint, that is the highest dilution that inhibits the test strain growth; it was determined by visual examination of the microplates with the aid of a magnifying mirror.

Escherichia coli L47 = assay: Broth microdilution antimicrobial assay, E. coli; type: cell-based; conditions: E. coli L47, 18 h, 35° C.; for MIC: Escherichia coli, read-out: MIC (Minimal Inhibitory Concentration)
Text: as §1, §2

Candida albicans L145 = assay: Broth microdilution antimicrobial assay, C. albicans; type: cell-based; conditions: for MIC: Candida albicans, L145, read-out: MIC (Minimal Inhibitory Concentration)
Text: as §1, §2

[2] = Activity of culture supernatant toward sucAAPF-AMC at various pH; type: biochemical
Experimental: (§3) FIG. 1. Activity of Actinoallomurus A8 culture supernatant fraction containing the native E40. A: relative activity toward the substrate sucAlaAlaProPhe-AMC (sucAAPF-AMC) at various pH values (the optimum —100% activity— is at pH 5). B: Gliadin digestion after 2 hours of incubation at 37° C., pH 3. Gel stained with Coomassie R250 brilliant blue; Lane 1: gliadin alone, lane 2: gliadin+E40-containing supernatant fraction.
FIG. 3. Recombinant E40 (SEQ ID NO: 2) obtained by S. lividans TK24/p1J86/e40 submerged fermentation, at flask scale (panels A-C) or in a 15 L bioreactor, followed by purification (panels D-E). A: activity toward the substrate sucAAPF-AMC at pH 5 of supernatant samples taken at different fermentation times (♦72, ▴96, ●168, ▪192 fermentation hours) from the producing S. lividans TK24/p1J86/E40 (E40, continuous line) and absence of activity of supernatant samples taken from the pIJ86-empty control strain (ctr, dashed lines). Activity is shown as relative fluorescent units (rfu, Y axis) produced in time (X axis). […] D: profile of an enzyme preparation comprising recombinant E40 purified from the 15 L fermentation; lane 1: final enzyme preparation comprising recombinant E40 stained with Coomassie (the arrow indicates recombinant E40), lane 2: zymography as in C, lane 3: band of gelatin hydrolysis after 2 hours of digestion at 37° C. and pH 5, visualized after Coomassie staining of the gelatin substrate. E: relative activity (%) of recombinant E40 in the purified enzyme preparation at different pH values (from 2 to 8), evaluated with the substrate suc-Ala-Ala-Pro-Phe-pNA.
As well as native E40, recombinant E40 was active in the pH range 3-6, with an optimum at pH 5 (FIG. 3, panel B).

gliadin = assay: Gliadin digestion by native E40 fraction (SDS-PAGE); type: biochemical; conditions: 2 hours, 37° C., pH 3
Experimental: as §3
Native E40 of sequence SEQ ID NO: 3 was purified from the supernatant fraction of an Actinoallomurus A8 culture isolated from soil (native E40) as described in WO2013083338.

## C[C@@H]1[C@H](O)[C@@H](C)/C=C/C=C/C=C/C=C/C=C/C=C/C=C/[C@H](O[C@@H]2O[C@H](C)[C@@H](O)[C@H](N)[C@@H]2O)C[C@@H]2O[C@](O)(C[C@@H](O)C[C@@H](O)[C@H](O)CC[C@@H](O)C[C@@H](O)CC(=O)O[C@H]1C)C[C@H](O)[C@H]2C(=O)O [Amphotericin B, amphotericin B]
[1]
  MIC (Minimal Inhibitory Concentration): >128 µg/mL
Escherichia coli L47
  MIC (Minimal Inhibitory Concentration): >128 µg/mL
Candida albicans L145; C. albicans L14, 24 h, 35° C.
  MIC (Minimal Inhibitory Concentration): 0.5 µg/mL (≈ 0.541 µM)

## CCCCCCCCCC(=O)N[C@@H](Cc1c[nH]c2ccccc12)C(=O)N[C@H](CC(N)=O)C(=O)N[C@@H](CC(=O)O)C(=O)N[C@@H]1C(=O)NCC(=O)N[C@@H](CCCN)C(=O)N[C@@H](CC(=O)O)C(=O)N[C@H](C)C(=O)N[C@@H](CC(=O)O)C(=O)NCC(=O)N[C@H](CO)C(=O)N[C@@H]([C@H](C)CC(=O)O)C(=O)N[C@@H](CC(=O)c2ccccc2N)C(=O)O[C@@H]1C [Daptomycin, daptomycin]
[1]
  MIC: 0.5 µg/mL (≈ 0.309 µM)
Escherichia coli L47
  MIC: > 128 µg/mL
Candida albicans L145; C. albicans L14, 24 h, 35° C.
  MIC: > 128 µg/mL

## CN[C@@H]1[C@@H](O[C@H]2O[C@H](CO)[C@@H](N)[C@H](O)[C@H]2O)OC2C[C@@H](N)[C@@H](O[C@H]3[C@H](O)[C@@H](O)[C@H](N)C[C@@H]3N)OC2[C@@H]1O (stereo partly shown) [Apramycin]
[1]
  MIC: 8 µg/mL (≈ 14.8 µM)
Escherichia coli L47
  MIC: 8 µg/mL (≈ 14.8 µM)
Candida albicans L145; C. albicans L14, 24 h, 35° C.
  MIC: > 128 µg/mL

## c1c[nH]cn1 [Imidazole, imidazole]
Candida albicans L145; C. albicans L14
  MIC: 3.9 mM

B1: Native E40: E40 of SEQ ID NO: 3 purified from supernatant fraction of an Actinoallomurus A8 culture as in WO2013083338 (protein)
chain: MSRRVTGTILGGLILAMVPFLSTAANAAPQAAPASVSHPFHHSCATVKPGRASCNALVRSDIAQSAATLAHQAAAPSGLSPANLQSAYKLPSSTAGSGQTVAIVDAYDAPTAEADLNVYRSQFGLGACTTANGCFKKVDQNGGTSYPRKDGGWAQEISLDLDMVSAVCPNCKIVLVEAKTNSFANLGTAENTAASLANVISNSYGGSDASDASYGSYYNHPGKAITVSSGDAGYGVEYPASSHYVTAVGGTSLRTASTSRGWSETAWSGAGSGCSAYNTALSGQSGLTGCSRRAVADVSAVADPATGVAVYDSTAYQGQSGWMVFGGTSVAAPIIGGVYGLAANAASIDNNYPYAHTSSLFDVTSGSNGTCTTTKWCTAGTGWDGPTGLGTPNGTGAF
modifications: Actinoallomurus
[2]; native E40
  pH range of marked glutenase activity: 3-6
[2]; native E40-containing Actinoallomurus A8 supernatant fraction, sucAAPF-AMC
  pH optimum of relative activity: 5
gliadin
  gliadin digestion: completely digested
